In ChEMBL document CHEMBL3112480, “γ-Alkylidene-γ-lactones and isobutylpyrrol-2(5H)-ones analogues to rubrolides as inhibitors of biofilm formation by gram-positive and gram-negative bacteria” (Bioorg Med Chem Lett, 2014):
Values after ≈ are worked out from the molar mass of the structure shown. Values belong to the compound of their own block, whether it stands above or below them.

Key:
Streptococcus mutans [1] = experiment: Antibacterial activity against Streptococcus mutans ATCC 25175 assessed as effect on planktonic growth at 0.34 ug/ml after 20 hrs relative to control; assay type: functional
Pseudomonas aeruginosa [2] = experiment: Antibacterial activity against Pseudomonas aeruginosa ATCC 27853 assessed as effect on planktonic growth at 2.73 ug/ml after 20 hrs relative to control; assay type: functional
[3] = system: Staphylococcus epidermidis; experiment: Antibacterial activity against Staphylococcus epidermidis ATCC 35547 assessed as effect on planktonic growth at 0.34 ug/ml after 20 hrs relative to control; assay type: functional
[4] = system: Staphylococcus epidermidis; experiment: Antibacterial activity against Staphylococcus epidermidis ATCC 35547 assessed as effect on planktonic growth at 43.8 ug/ml after 20 hrs relative to control; assay type: functional
Pseudomonas aeruginosa [5] = experiment: Antibacterial activity against Pseudomonas aeruginosa ATCC 27853 assessed as effect on planktonic growth at 87.5 ug/ml after 20 hrs relative to control; assay type: functional
Streptococcus mutans [6] = experiment: Antibacterial activity against Streptococcus mutans ATCC 25175 assessed as effect on planktonic growth at 43.8 ug/ml after 20 hrs relative to control; assay type: functional
Staphylococcus aureus [7] = experiment: Antibacterial activity against Staphylococcus aureus ATCC 25923 assessed as effect on planktonic growth at 0.17 ug/ml after 20 hrs relative to control; assay type: functional
[8] = system: Staphylococcus epidermidis; experiment: Antibacterial activity against Staphylococcus epidermidis ATCC 35547 assessed as inhibition of biofilm formation after 20 hrs by crystal-violet staining method; assay type: functional, organism-based; settings: for IC50: ATCC 35547, 20 h
Streptococcus mutans [9] = experiment: Antibacterial activity against Streptococcus mutans ATCC 25175 assessed as effect on planktonic growth at 1.37 ug/ml after 20 hrs relative to control; assay type: functional
Staphylococcus aureus [10] = experiment: Antibacterial activity against Staphylococcus aureus ATCC 25923 assessed as effect on planktonic growth at 0.68 ug/ml after 20 hrs relative to control; assay type: functional
Staphylococcus aureus [11] = experiment: Antibacterial activity against Staphylococcus aureus ATCC 25923 assessed as effect on planktonic growth at 0.34 ug/ml after 20 hrs relative to control; assay type: functional
[12] = system: Staphylococcus epidermidis; experiment: Antibacterial activity against Staphylococcus epidermidis ATCC 35547 assessed as effect on planktonic growth at 21.9 ug/ml after 20 hrs relative to control; assay type: functional
[13] = system: Staphylococcus epidermidis; experiment: Antibacterial activity against Staphylococcus epidermidis ATCC 35547 assessed as effect on planktonic growth at 5.5 ug/ml after 20 hrs relative to control; assay type: functional
Pseudomonas aeruginosa [14] = experiment: Antibacterial activity against Pseudomonas aeruginosa ATCC 27853 assessed as inhibition of biofilm formation after 20 hrs by crystal-violet staining method; assay type: functional, organism-based; settings: for IC50: ATCC 27853, 20 h
Pseudomonas aeruginosa [15] = experiment: Antibacterial activity against Pseudomonas aeruginosa ATCC 27853 assessed as effect on planktonic growth at 43.8 ug/ml after 20 hrs relative to control; assay type: functional
Pseudomonas aeruginosa [16] = experiment: Antibacterial activity against Pseudomonas aeruginosa ATCC 27853 assessed as effect on planktonic growth at 0.68 ug/ml after 20 hrs relative to control; assay type: functional
Staphylococcus aureus [17] = experiment: Antibacterial activity against Staphylococcus aureus ATCC 25923 assessed as effect on planktonic growth at 1.37 ug/ml after 20 hrs relative to control; assay type: functional
Streptococcus mutans [18] = experiment: Antibacterial activity against Streptococcus mutans ATCC 25175 assessed as effect on planktonic growth at 87.5 ug/ml after 20 hrs relative to control; assay type: functional
Streptococcus mutans [19] = experiment: Antibacterial activity against Streptococcus mutans ATCC 25175 assessed as effect on planktonic growth at 2.73 ug/ml after 20 hrs relative to control; assay type: functional
Staphylococcus aureus [20] = experiment: Antibacterial activity against Staphylococcus aureus ATCC 25923 assessed as effect on planktonic growth at 10.9 ug/ml after 20 hrs relative to control; assay type: functional
[21] = system: Staphylococcus epidermidis; experiment: Antibacterial activity against Staphylococcus epidermidis ATCC 35547 assessed as effect on planktonic growth at 2.73 ug/ml after 20 hrs relative to control; assay type: functional
Staphylococcus aureus [22] = experiment: Antibacterial activity against Staphylococcus aureus ATCC 25923 assessed as effect on planktonic growth at 87.5 ug/ml after 20 hrs relative to control; assay type: functional
Pseudomonas aeruginosa [23] = experiment: Antibacterial activity against Pseudomonas aeruginosa ATCC 27853 assessed as effect on planktonic growth at 5.5 ug/ml after 20 hrs relative to control; assay type: functional
Staphylococcus aureus [24] = experiment: Antibacterial activity against Staphylococcus aureus ATCC 25923 assessed as effect on planktonic growth at 43.8 ug/ml after 20 hrs relative to control; assay type: functional
Pseudomonas aeruginosa [25] = experiment: Antibacterial activity against Pseudomonas aeruginosa ATCC 27853 assessed as effect on planktonic growth at 1.37 ug/ml after 20 hrs relative to control; assay type: functional
[26] = system: Staphylococcus epidermidis; experiment: Antibacterial activity against Staphylococcus epidermidis ATCC 35547 assessed as effect on planktonic growth at 1.37 ug/ml after 20 hrs relative to control; assay type: functional
Staphylococcus aureus [27] = experiment: Antibacterial activity against Staphylococcus aureus ATCC 25923 assessed as effect on planktonic growth at 5.5 ug/ml after 20 hrs relative to control; assay type: functional
Streptococcus mutans [28] = experiment: Antibacterial activity against Streptococcus mutans ATCC 25175 assessed as effect on planktonic growth at 5.5 ug/ml after 20 hrs relative to control; assay type: functional
Pseudomonas aeruginosa [29] = experiment: Antibacterial activity against Pseudomonas aeruginosa ATCC 27853 assessed as effect on planktonic growth at 0.34 ug/ml after 20 hrs relative to control; assay type: functional
[30] = system: Staphylococcus epidermidis; experiment: Antibacterial activity against Staphylococcus epidermidis ATCC 35547 assessed as effect on planktonic growth at 87.5 ug/ml after 20 hrs relative to control; assay type: functional
[31] = system: Staphylococcus epidermidis; experiment: Antibacterial activity against Staphylococcus epidermidis ATCC 35547 assessed as effect on planktonic growth at 0.68 ug/ml after 20 hrs relative to control; assay type: functional
Streptococcus mutans [32] = experiment: Antibacterial activity against Streptococcus mutans ATCC 25175 assessed as effect on planktonic growth at 21.9 ug/ml after 20 hrs relative to control; assay type: functional
[33] = system: Staphylococcus epidermidis; experiment: Antibacterial activity against Staphylococcus epidermidis ATCC 35547 assessed as effect on planktonic growth at 10.9 ug/ml after 20 hrs relative to control; assay type: functional
Pseudomonas aeruginosa [34] = experiment: Antibacterial activity against Pseudomonas aeruginosa ATCC 27853 assessed as effect on planktonic growth at 21.9 ug/ml after 20 hrs relative to control; assay type: functional
Pseudomonas aeruginosa [35] = experiment: Antibacterial activity against Pseudomonas aeruginosa ATCC 27853 assessed as effect on planktonic growth at 0.17 ug/ml after 20 hrs relative to control; assay type: functional
Streptococcus mutans [36] = experiment: Antibacterial activity against Streptococcus mutans ATCC 25175 assessed as effect on planktonic growth at 0.68 ug/ml after 20 hrs relative to control; assay type: functional
Streptococcus mutans [37] = experiment: Antibacterial activity against Streptococcus mutans ATCC 25175 assessed as effect on planktonic growth at 0.17 ug/ml after 20 hrs relative to control; assay type: functional
Staphylococcus aureus [38] = experiment: Antibacterial activity against Staphylococcus aureus ATCC 25923 assessed as effect on planktonic growth at 2.73 ug/ml after 20 hrs relative to control; assay type: functional
Pseudomonas aeruginosa [39] = experiment: Antibacterial activity against Pseudomonas aeruginosa ATCC 27853 assessed as effect on planktonic growth at 10.9 ug/ml after 20 hrs relative to control; assay type: functional
Streptococcus mutans [40] = experiment: Antibacterial activity against Streptococcus mutans ATCC 25175 assessed as effect on planktonic growth at 10.9 ug/ml after 20 hrs relative to control; assay type: functional
[41] = system: Staphylococcus epidermidis; experiment: Antibacterial activity against Staphylococcus epidermidis ATCC 35547 assessed as effect on planktonic growth at 0.17 ug/ml after 20 hrs relative to control; assay type: functional
Staphylococcus aureus [42] = experiment: Antibacterial activity against Staphylococcus aureus ATCC 25923 assessed as effect on planktonic growth at 21.9 ug/ml after 20 hrs relative to control; assay type: functional

IC50 [8]: 41.3 µg/mL (≈ 80.2 µM)
IC50 (Pseudomonas aeruginosa [14]): > 87.5 µg/mL
SMILES: COc1ccc(Br)cc1C1=C(Br)C(=O)O/C1=C\c1ccc(Br)cc1
Activity (Streptococcus mutans [1]): 3.8%
Activity (Pseudomonas aeruginosa [2]): -19.2%
Activity [3]: 0.6%
Activity [4]: 22.1%
Activity (Pseudomonas aeruginosa [5]): -12.9%
Activity (Streptococcus mutans [6]): -11.3%
Activity (Staphylococcus aureus [7]): -1.6%
inhibition [8]: Dose-dependent effect
Activity (Streptococcus mutans [9]): 12.3%
Activity (Staphylococcus aureus [10]): 0.8%
Activity (Staphylococcus aureus [11]): 0.5%
Activity [12]: 3.9%
Activity [13]: 1%
inhibition (Pseudomonas aeruginosa [14]): Dose-dependent effect
Activity (Pseudomonas aeruginosa [15]): -12.1%
Activity (Pseudomonas aeruginosa [16]): -1.8%
Activity (Staphylococcus aureus [17]): 6.7%
Activity (Streptococcus mutans [18]): -13.5%
Activity (Streptococcus mutans [19]): 15%
Activity (Staphylococcus aureus [20]): 15.8%
Activity [21]: 4.5%
Activity (Staphylococcus aureus [22]): 9.4%
Activity (Pseudomonas aeruginosa [23]): -22%
Activity (Staphylococcus aureus [24]): 13.1%
Activity (Pseudomonas aeruginosa [25]): -8.6%
Activity [26]: -2.2%
Activity (Staphylococcus aureus [27]): 8.3%
Activity (Streptococcus mutans [28]): 10.3%
Activity (Pseudomonas aeruginosa [29]): -1.9%
Activity [30]: 31.9%
Activity [31]: -0.2%
Activity (Streptococcus mutans [32]): 4%
Activity [33]: -1.5%
Activity (Pseudomonas aeruginosa [34]): -15.1%
Activity (Pseudomonas aeruginosa [35]): -1.8%
Activity (Streptococcus mutans [36]): 7%
Activity (Streptococcus mutans [37]): 4.5%
Activity (Staphylococcus aureus [38]): 5.6%
Activity (Pseudomonas aeruginosa [39]): -17.6%
Activity (Streptococcus mutans [40]): 7.2%
Activity [41]: 8.1%
Activity (Staphylococcus aureus [42]): 23.1%

IC50 [8]: > 87.5 µg/mL
IC50 (Pseudomonas aeruginosa [14]): > 87.5 µg/mL
SMILES: COc1ccccc1C1=C(Br)C(=O)O/C1=C\c1ccc(C(F)(F)F)cc1
Activity (Streptococcus mutans [1]): 1.1%
Activity (Pseudomonas aeruginosa [2]): -7%
Activity [3]: -14.8%
Activity [4]: 30.7%
Activity (Pseudomonas aeruginosa [5]): 15.1%
Activity (Streptococcus mutans [6]): 21.5%
Activity (Staphylococcus aureus [7]): -3.6%
inhibition [8]: Dose-dependent effect
Activity (Streptococcus mutans [9]): -6.5%
Activity (Staphylococcus aureus [10]): -2.3%
Activity (Staphylococcus aureus [11]): -2%
Activity [12]: 18.7%
Activity [13]: -9.1%
inhibition (Pseudomonas aeruginosa [14]): Dose-dependent effect
Activity (Pseudomonas aeruginosa [15]): 34.3%
Activity (Pseudomonas aeruginosa [16]): -1.3%
Activity (Staphylococcus aureus [17]): -0.5%
Activity (Streptococcus mutans [18]): 58.9%
Activity (Streptococcus mutans [19]): -4%
Activity (Staphylococcus aureus [20]): 9.7%
Activity [21]: 12.9%
Activity (Staphylococcus aureus [22]): 81.2%
Activity (Pseudomonas aeruginosa [23]): 7.9%
Activity (Staphylococcus aureus [24]): 47.3%
Activity (Pseudomonas aeruginosa [25]): -5.7%
Activity [26]: 2.9%
Activity (Staphylococcus aureus [27]): 9.9%
Activity (Streptococcus mutans [28]): -4.8%
Activity (Pseudomonas aeruginosa [29]): -0.4%
Activity [30]: 14.7%
Activity [31]: -16.5%
Activity (Streptococcus mutans [32]): 0.6%
Activity [33]: 10.3%
Activity (Pseudomonas aeruginosa [34]): 58%
Activity (Pseudomonas aeruginosa [35]): -1.3%
Activity (Streptococcus mutans [36]): -1.7%
Activity (Streptococcus mutans [37]): -3.1%
Activity (Staphylococcus aureus [38]): 6.6%
Activity (Pseudomonas aeruginosa [39]): 49.9%
Activity (Streptococcus mutans [40]): -9.3%
Activity [41]: -12.1%
Activity (Staphylococcus aureus [42]): 26.7%
